Among the data in ChEMBL document CHEMBL1154101, “Purinergic P2X(7) receptor antagonists: Chemistry and fundamentals of biological screening” (Bioorg Med Chem, 2009) are IC50 values, retold here.

The term IC50 denotes the concentration that inhibits the measured activity by half.

For assay [1], the target named is T1, P2X purinoceptor 7 (Rattus norvegicus, UniProt Q64663).
T1 sequence (Q64663 whole entry): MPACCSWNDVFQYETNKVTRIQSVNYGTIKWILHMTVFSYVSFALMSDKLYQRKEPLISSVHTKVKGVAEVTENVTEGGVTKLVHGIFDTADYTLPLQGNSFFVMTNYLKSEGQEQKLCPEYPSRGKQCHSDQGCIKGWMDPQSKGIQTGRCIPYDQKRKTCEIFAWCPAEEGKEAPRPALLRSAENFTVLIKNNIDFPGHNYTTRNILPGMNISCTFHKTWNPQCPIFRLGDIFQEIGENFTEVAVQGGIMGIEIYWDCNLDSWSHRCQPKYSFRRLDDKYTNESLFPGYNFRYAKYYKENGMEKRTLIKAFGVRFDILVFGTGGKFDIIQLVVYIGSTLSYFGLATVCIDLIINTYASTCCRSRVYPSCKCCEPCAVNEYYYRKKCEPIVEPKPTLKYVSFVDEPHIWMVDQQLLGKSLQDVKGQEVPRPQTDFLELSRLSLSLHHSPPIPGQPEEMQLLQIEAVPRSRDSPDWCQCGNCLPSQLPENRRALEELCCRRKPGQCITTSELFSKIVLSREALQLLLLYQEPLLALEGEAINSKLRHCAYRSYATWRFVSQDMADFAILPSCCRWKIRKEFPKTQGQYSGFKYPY
Kind of assay: Binding affinity at rat P2X7 receptor.

Assay [2] addresses T2, P2X purinoceptor 7 (Homo sapiens, UniProt Q99572).
T2 sequence (Q99572 whole entry): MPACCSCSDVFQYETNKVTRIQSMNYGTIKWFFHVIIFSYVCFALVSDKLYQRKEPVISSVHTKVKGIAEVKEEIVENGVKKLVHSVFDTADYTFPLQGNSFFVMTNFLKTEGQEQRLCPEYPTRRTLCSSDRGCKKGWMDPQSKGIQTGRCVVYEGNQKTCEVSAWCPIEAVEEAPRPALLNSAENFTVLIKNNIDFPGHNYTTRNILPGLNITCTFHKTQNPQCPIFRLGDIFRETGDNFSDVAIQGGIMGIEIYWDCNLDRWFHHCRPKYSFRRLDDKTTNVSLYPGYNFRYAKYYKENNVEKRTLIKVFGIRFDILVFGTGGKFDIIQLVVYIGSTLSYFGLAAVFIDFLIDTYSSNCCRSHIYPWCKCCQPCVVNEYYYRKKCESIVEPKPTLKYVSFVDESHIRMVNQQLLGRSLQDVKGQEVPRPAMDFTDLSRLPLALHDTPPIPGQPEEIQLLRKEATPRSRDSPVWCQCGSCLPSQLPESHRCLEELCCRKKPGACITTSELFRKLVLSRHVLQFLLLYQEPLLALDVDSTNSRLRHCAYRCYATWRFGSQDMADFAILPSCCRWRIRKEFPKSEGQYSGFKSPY
Description: Antagonist activity at P2X7 receptor in human THP1 cells assessed as inhibition of BzATP-induced pore formation. The format is functional, cell-based, THP-1.

For assay [3], the target named is T2, P2X purinoceptor 7. Description: Antagonist activity at human recombinant P2X7 receptor expressed in human THP1 cells assessed as inhibition of BzATP-induced IL1-beta release by enzyme-linked immunosorbent assay. It counts as functional, cell-based, THP-1.
Assay [4] deals with T2, P2X purinoceptor 7. Kind of assay: Antagonist activity at human recombinant P2X7 receptor expressed in human 1321N1 cells assessed as inhibition of BzATP-induced pore formation flux by fluorometric assay. The format is functional, cell-based.

Each structure is given as a SMILES string.

At P2X purinoceptor 7 [1], `[3H]c1ccc([C@H](C)N/C(=N/C#N)Nc2cccc3ncccc23)cc1` had a concentration for half-maximal inhibition (IC50) of 10 nM.
In the case of `CN([C@@H](Cc1ccc(OS(=O)(=O)c2cccc3cnccc23)cc1)C(=O)N1CCN(c2ccccc2)CC1)S(=O)(=O)c1cccc2cnccc12`, the IC50 on P2X purinoceptor 7 [2] was 300 nM.
Still for that read-out and setting: with `N=C1N[C@@H]2O[C@@H]3NC(=N)N[C@]34[C@H]([C@H](CNC(=O)c3cc(Br)c(Br)[nH]3)[C@@H](CNC(=O)c3cc(Br)c(Br)[nH]3)[C@@H]4O[C@H]3[C@H](CNC(=O)c4cc(Br)c(Br)[nH]4)[C@@H](CNC(=O)c4cc(Br)c(Br)[nH]4)[C@@H]4[C@]5(O)NC(=N)N[C@@H]5O[C@@H]5NC(=N)N[C@]453)[C@]2(O)N1` [STYLISSADINE A] the figure was 700 nM.
Consider `COc1ccc(CC(=O)NC(N/C(=N/C#N)Nc2cccc3ncccc23)C(C)(C)C)cc1OC` (stereo unspecified), for which the concentration for half-maximal inhibition (IC50) was determined as 156 nM on P2X purinoceptor 7 [3] and 92 nM at P2X purinoceptor 7 [4].
Consider `N=C1N[C@@H]2O[C@@H]3NC(=N)N[C@]34[C@H]([C@H](CNC(=O)c3cc(Br)c(Br)[nH]3)[C@@H](CNC(=O)c3cc(Br)c(Br)[nH]3)[C@@H]4O[C@H]3[C@H](CNC(=O)c4cc(Br)c(Br)[nH]4)[C@@H](CNC(=O)c4cc(Br)c(Br)[nH]4)[C@H]4[C@]5(O)NC(=N)N[C@@H]5O[C@@H]5NC(=N)N[C@]534)[C@]2(O)N1` [STYLISSADINE B], for which, on P2X purinoceptor 7 [2], the half-inhibitory concentration (IC50) stood at 1800 nM.
